Several values for one entry are separate records, joined by “and”; a condition that tells them apart may be missing. Equal values may be shown once.
Columns and labels:
[1] = system: JFCR39 panel of 39 human tumor cell lines; experiment: JFCR39 panel growth inhibition, panel statistics; assay type: cell-based; conditions: Homo sapiens; JFCR39 panel; read-out: mean GI50 across all 39 cell lines
Protocol: JFCR39 drug discovery system was used to measure the growth inhibitory activities and identify the target of KTC1101. The JFCR39 panel consists of 39 cell lines seeded in 96-well plates. After 48-h treatment with KTC1101, cell growth was measured using the sulforhodamine B assay. […] The deviation of log GI50 for each cell line from the average log GI50 across the JFCR39 panel was plotted as a fingerprint. MG-MID (mean of Log GI50 values) represents the average log GI50 for all 39 cell lines. The most sensitive and least sensitive cell lines were identified by calculating the difference in their log GI50 values (Range) and the difference between the most sensitive cell line and the average GI50 on the JFCR39 panel (Delta). The fingerprint of KTC1101 was compared with the fingerprints of reference compounds in the database. The Pearson correlation coefficient (r) was calculated (n = 39).

[2] = system: B16 cells gene expression; experiment: RNA-Seq (DEGs, GSEA, heatmaps) of B16 cells; conditions: B16 cells, replicates KTC1-KTC3
[3] = Liver microsome metabolic stability assay; conditions: mouse, microsomes
[4] = Plasma metabolic stability assay; assay type: in vitro ADME; conditions: mouse plasma, 37°C, 120 min incubation
Protocol: 495 µL of plasma was placed in a 96-well plate and pre-incubated at 37°C for 5 min.

## COc1c(OCCCN2CCOCC2)ccc2c1N=C(NC(=O)c1cnc(N)nc1)N1CCN=C21 [Copanlisib, reference compound]
[1]
  GI50: 134 nM

## COc1cc(N)cc2c1nc(C(F)F)n2-c1nc(N2CCCOCC2)nc(N2CCOCC2)n1 [KTC]
[2]; KTC 0.04μM
  Adam19 gene expression (RNA-Seq): 11.78 and 12.44 and 13.05
  Axl gene expression (RNA-Seq): 4.83 and 4.54 and 4.92
  Btg1 gene expression (RNA-Seq): 6.87 and 7.6 and 7.15
  Capg gene expression (RNA-Seq): 24.95 and 22.04 and 23.37
  Ccl5 gene expression (RNA-Seq): 9.15 and 9.99 and 10.19
  Ccn1 gene expression (RNA-Seq): 37.5 and 41.45 and 42.8
  Ccnd1 gene expression (RNA-Seq): 70.38 and 71.17 and 69.7
  Cx3cl1 gene expression (RNA-Seq): 1.55 and 2.17 and 1.72
  Cxcl10 gene expression (RNA-Seq): 16.76 and 15.67 and 17.26
  Dusp1 gene expression (RNA-Seq): 4.08 and 4.86 and 3.75
  Dusp4 gene expression (RNA-Seq): 48.69 and 51.07 and 50.43
  Egr1 gene expression (RNA-Seq): 0.45 and 0.83 and 0.94
  Etv4 gene expression (RNA-Seq): 1.8 and 1.31 and 1.55
  Fos gene expression (RNA-Seq): 5.98 and 9.07 and 3.6
  Fosb gene expression (RNA-Seq): 5.83 and 8.56 and 1.19
  Hes1 gene expression (RNA-Seq): 2.93 and 3.6 and 4.11
  Irak2 gene expression (RNA-Seq): 4.46 and 3.71 and 4.84
  Irf6 gene expression (RNA-Seq): 0.75 and 0.73 (2×)
  Irs2 gene expression (RNA-Seq): 4.62 and 4.54 and 4.48
  Jag1 gene expression (RNA-Seq): 3.9 and 3.6 and 3.87
  Junb gene expression (RNA-Seq): 5.41 and 5.91 and 6.31
  Klf2 gene expression (RNA-Seq): 2.37 and 2.53 and 1.84
  Klf9 gene expression (RNA-Seq): 1.42 and 1.56 and 1.52
  Maff gene expression (RNA-Seq): 1.99 and 1.97 and 1.81
  Myc gene expression (RNA-Seq): 51.1 and 50.03 and 54.71
  Nfkb2 gene expression (RNA-Seq): 19.99 and 21.56 and 22.54
  Nfkbia gene expression (RNA-Seq): 16.08 and 16.06 and 15.47
  Nfkbie gene expression (RNA-Seq): 12.93 and 13.17 and 14.09
  Nr4a1 gene expression (RNA-Seq): 27.6 and 28.38 and 30.22
  Nr4a3 gene expression (RNA-Seq): 13.97 and 13.13 and 12.62
  P2rx7 gene expression (RNA-Seq): 9.9 and 10.96 and 10.37
  Pde4b gene expression (RNA-Seq): 7.81 and 8.81 and 8.51
  Pmepa1 gene expression (RNA-Seq): 0.72 and 0.75 and 0.79
  Pnrc1 gene expression (RNA-Seq): 23.22 and 24.79 and 24.57
  Relb gene expression (RNA-Seq): 7.12 and 7.46 and 7.78
  Rgs16 gene expression (RNA-Seq): 6.49 and 5.97 and 6.54
  Rhob gene expression (RNA-Seq): 30.37 and 32.79 and 32.66
  Serpine1 gene expression (RNA-Seq): 0.22 and 0.24 and 0.32
  Sgk1 gene expression (RNA-Seq): 3.46 and 3.48 and 3.41
  Sgms2 gene expression (RNA-Seq): 0.2 and 0.16 and 0.24
  Spred2 gene expression (RNA-Seq): 15.32 and 15.07 and 16.22
  Spry4 gene expression (RNA-Seq): 1.16 and 1.17 and 1.15
  Tiparp gene expression (RNA-Seq): 15.99 and 15.69 and 16.6
  Zc3h12a gene expression (RNA-Seq): 2.43 and 2.61 and 1.93
  Zfp36 gene expression (RNA-Seq): 3.85 and 4.04 and 4.57
[2]; KTC 0.2μM
  Adam19 gene expression (RNA-Seq): 19.27 and 19.65 and 19.87
  Adcy1 gene expression (RNA-Seq): 0.05 (2×) and 0.09
  Adcy6 gene expression (RNA-Seq): 15.71 and 16.34 and 15.68
  Adcy7 gene expression (RNA-Seq): 24.18 and 23.98 and 24.16
  Ahr gene expression (RNA-Seq): 3.75 and 3.9 and 4.26
  Arrb1 gene expression (RNA-Seq): 7.32 and 7.58 and 7.1
  Axl gene expression (RNA-Seq): 19.13 and 18.11 and 18.34
  Bcl3 gene expression (RNA-Seq): 1.26 and 1.46 and 1.81
  Birc3 gene expression (RNA-Seq): 0.82 and 0.69 and 1.02
  Btg1 gene expression (RNA-Seq): 10.22 and 9.53 and 9.68
  Capg gene expression (RNA-Seq): 39.95 and 40.18 and 41.23
  Ccl5 gene expression (RNA-Seq): 26.92 and 30.51 and 26.01
  Ccl6 gene expression (RNA-Seq): 0.22 (2×) and 0.39
  Ccl9 gene expression (RNA-Seq): 0.11 and 0.07 and 0.02
  Ccl27b gene expression (RNA-Seq): 0.37 and 0.93 and 0.69
  Ccn1 gene expression (RNA-Seq): 43.03 and 43.88 and 47.2
  Ccnd1 gene expression (RNA-Seq): 93.08 and 94.99 and 95.21
  Cish gene expression (RNA-Seq): 2.04 and 1.79 and 1.74
  Ckap4 gene expression (RNA-Seq): 13.31 and 12.58 and 12.66
  Cx3cl1 gene expression (RNA-Seq): 1.83 and 1.75 and 1.74
  Cxcl1 gene expression (RNA-Seq): 0.29 and 0.77 and 0.5
  Cxcl10 gene expression (RNA-Seq): 23.61 and 22.04 and 22.99
  Cxcr3 gene expression (RNA-Seq): 1.95 and 1.7 and 1.8
  Dcps gene expression (RNA-Seq): 124.78 and 129.34 and 129.92
  Dusp1 gene expression (RNA-Seq): 6.18 and 4.88 and 5.31
  Dusp4 gene expression (RNA-Seq): 74.48 and 66.32 and 71.85
  Egr1 gene expression (RNA-Seq): 2.42 and 2.39 and 2.31
  Egr2 gene expression (RNA-Seq): 0.12 and 0.14 and 0.22
  Etfbkmt gene expression (RNA-Seq): 13.18 and 12.47 and 12.84
  Etv4 gene expression (RNA-Seq): 2.57 and 3.09 and 3.52
  Fos gene expression (RNA-Seq): 6.53 and 3.78 and 2.09
  Fosb gene expression (RNA-Seq): 6.21 and 3 and 0.33
  Gnb4 gene expression (RNA-Seq): 8.23 and 8.94 and 8.73
  Gng11 gene expression (RNA-Seq): 47.07 and 50.78 and 52.97
  Gsto1 gene expression (RNA-Seq): 56.3 and 52.98 and 58.2
  Hes1 gene expression (RNA-Seq): 4.87 and 4.41 and 5.8
  Ifitm3 gene expression (RNA-Seq): 48.58 and 48.45 and 50.69
  Igf1r gene expression (RNA-Seq): 6.64 and 6.31 and 6.49
  Ikzf2 gene expression (RNA-Seq): 0.58 and 0.65 and 0.83
  Il3ra gene expression (RNA-Seq): 8.13 and 8.28 and 7.91
  Il4ra gene expression (RNA-Seq): 0.35 and 0.33 and 0.39
  Il15ra gene expression (RNA-Seq): 0.8 and 0.77 and 0.98
  Il18 gene expression (RNA-Seq): 2.98 and 3.73 and 3.81
  Irak2 gene expression (RNA-Seq): 6.66 and 7.18 and 6.91
  Irf6 gene expression (RNA-Seq): 0.95 and 0.94 and 0.76
  Irs2 gene expression (RNA-Seq): 6.99 and 6.74 and 7.06
  Jag1 gene expression (RNA-Seq): 5.14 and 5.2 and 5.32
  Junb gene expression (RNA-Seq): 9.95 and 9.21 and 10.31
  Klf2 gene expression (RNA-Seq): 5.92 and 4.44 and 4.22
  Klf4 gene expression (RNA-Seq): 1.74 and 0.87 and 0.94
  Klf9 gene expression (RNA-Seq): 2.21 and 2.14 and 2.03
  Lif gene expression (RNA-Seq): 0.18 and 0.1 and 0.2
  Lrrc8c gene expression (RNA-Seq): 9.54 and 9.91 and 9.16
  Maff gene expression (RNA-Seq): 8.01 and 8.27 and 7.95
  Myc gene expression (RNA-Seq): 80.51 and 79.74 and 85.17
  Nfkb2 gene expression (RNA-Seq): 29.06 and 30.4 and 30.6
  Nfkbia gene expression (RNA-Seq): 28.35 and 27.12 and 24.65
  Nfkbie gene expression (RNA-Seq): 23.83 and 25.35 and 25
  Nr4a1 gene expression (RNA-Seq): 46.25 and 44.44 and 46.02
  Nr4a3 gene expression (RNA-Seq): 17.79 and 16.5 and 17.39
  P2rx7 gene expression (RNA-Seq): 16.97 and 18.85 and 16.56
  Pde4b gene expression (RNA-Seq): 11.38 and 11.69 and 11.76
  Pim1 gene expression (RNA-Seq): 7.35 and 8.15 and 8.02
  Plcb2 gene expression (RNA-Seq): 0.43 and 0.62 and 0.67
  Plcg2 gene expression (RNA-Seq): 1.3 and 1.71 and 1.76
  Pmepa1 gene expression (RNA-Seq): 1.45 and 1.08 and 1.06
  Pnrc1 gene expression (RNA-Seq): 33.48 and 28.22 and 29.95
  Prnp gene expression (RNA-Seq): 1380.34 and 1358.49 and 1354.58
  Ptk2b gene expression (RNA-Seq): 2.37 and 2.08 and 2.03
  Relb gene expression (RNA-Seq): 11.53 and 13.05 and 11.17
  Rgs16 gene expression (RNA-Seq): 9.71 and 10 and 9.9
  Rhob gene expression (RNA-Seq): 60.96 and 58.66 and 58.57
  Serpine1 gene expression (RNA-Seq): 1.09 and 0.86 and 1.2
  Shc3 gene expression (RNA-Seq): 0.37 and 0.31 and 0.25
  Smad3 gene expression (RNA-Seq): 20.9 and 21.03 and 22.24
  Smpdl3a gene expression (RNA-Seq): 36.94 and 40.39 and 39.45
  Spred2 gene expression (RNA-Seq): 19.27 and 21.51 and 19.83
  Spry4 gene expression (RNA-Seq): 2.44 and 2.59 and 2.62
  Src gene expression (RNA-Seq): 43.09 and 43.5 and 41.98
  St3gal4 gene expression (RNA-Seq): 75.01 and 74.93 and 70.63
  Syt11 gene expression (RNA-Seq): 7.36 and 7.81 and 7.47
  Tlr2 gene expression (RNA-Seq): 0.22 and 0.34 and 0.25
  Tlr7 gene expression (RNA-Seq): 0.79 and 0.75 and 0.7
  Tnfaip3 gene expression (RNA-Seq): 0.93 and 0.95 and 0.79
  Zc3h12a gene expression (RNA-Seq): 3.34 and 3.16 and 3.73

## Cc1ncc2n1-c1ccc(Cl)cc1C(c1ccccc1F)=NC2 [Midazolam, reference compound]
[3]
  half-life at 1 µM: 1.24 min
  microsomal CLint at 1 µM: 1120 µL/min/mg

## CCN(CC)CCOC(=O)c1ccc(N)cc1 [Procaine, reference compound]
[4]
  half-life at 1 µM: 37.8 min

## FC(F)c1nc2ccccc2n1-c1nc(N2CCOCC2)nc(N2CCOCC2)n1 [ZSTK474, reference compound]
[1]
  GI50: 320 nM

Reference: publication PMC10938783, “A novel pan-PI3K inhibitor KTC1101 synergizes with anti-PD-1 therapy by targeting tumor suppression and immune activation” (Molecular Cancer, 2024)
